System: VERPE (creeping speedwell)
Assay: Pre-emergence herbicidal activity, cool season
Type: in vivo, Veronica persicaria
Details: lowest tested rate with 80% or greater inhibition; rates 300, 100, 30, 10 g/ha; about 14 days
Method in brief: (§1)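 Seeds sown in sterilised fertilised topsoil received surface-applied compound in 50:50 acetone/water, typically at 300, 100, 30 and 10 g/ha, then greenhouse-grown at 30/21° C (warm-season species) or 18/13° C (cool-season species). Percent inhibition versus untreated plants was scored at about 14 days, giving GR80; an asterisk marks activity short of 80% at the top rate.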

| SMILES | Pre-emergence activity GR80, VERPE |
| --- | --- |
| CN(Cc1ccccc1)C(=O)n1cnc(S(=O)(=O)C(F)(F)Br)n1 [Example 44] | 100 g/ha |
| C#CCN(C)C(=O)n1cnc(S(=O)(=O)C(F)(F)C(F)F)n1 [Example 66] | 100 g/ha |
| CCSC(F)(F)S(=O)(=O)c1ncn(C(=S)N(CC)CC)n1 [Example 58] | 300 g/ha |

System: SASKR (russian thistle)
Assay: Pre-emergence herbicidal activity, cool season
Type: in vivo, Salsola kali
Details: lowest tested rate with 80% or greater inhibition; rates 300, 100, 30, 10 g/ha; about 14 days
Method in brief: as §1

| SMILES | Pre-emergence activity GR80, SASKR |
| --- | --- |
| CN(Cc1ccccc1)C(=O)n1cnc(S(=O)(=O)C(F)(F)Br)n1 [Example 44] | [empty] |
| C#CCN(C)C(=O)n1cnc(S(=O)(=O)C(F)(F)C(F)F)n1 [Example 66] | 300 g/ha |
| CCSC(F)(F)S(=O)(=O)c1ncn(C(=S)N(CC)CC)n1 [Example 58] | 300 g/ha |

System: SINAR (wild mustard)
Assay: Pre-emergence herbicidal activity, cool season
Type: in vivo, Sinapis arvensis
Details: lowest tested rate with 80% or greater inhibition; rates 300, 100, 30, 10 g/ha; about 14 days
Method in brief: as §1

| SMILES | Pre-emergence activity GR80, SINAR |
| --- | --- |
| CN(Cc1ccccc1)C(=O)n1cnc(S(=O)(=O)C(F)(F)Br)n1 [Example 44] | [empty] |
| C#CCN(C)C(=O)n1cnc(S(=O)(=O)C(F)(F)C(F)F)n1 [Example 66] | [empty] |
| CCSC(F)(F)S(=O)(=O)c1ncn(C(=S)N(CC)CC)n1 [Example 58] | [empty] |

System: DATST (jimsonweed)
Assay: Pre-emergence herbicidal activity, warm season
Type: in vivo, Datura stramonium
Details: GR80 = lowest tested rate (300, 100, 30, 10 g/ha) with 80% or greater inhibition; approx. 14 days after treating; 30/21° C.
Method: (§2) Tables 5 to 8 summarize results of tests conducted as described below to determine the pre-emergence herbicidal activity, in the form of a GR80 value, of illustrative compounds of this invention. […] Compounds of the invention were typically applied at rates of 300, 100, 30, and 10 g/ha. Where herbicidal activity was evident but 80% inhibition was not achieved at the highest rate tested, an asterisk (*) is shown in the following tables.
(§3) The pre-emergence tests were conducted by the following procedure. Topsoil was sieved to pass through a 1.27 cm screen. Fertilizer was added to the topsoil and the mixture was then sterilized by heating. The topsoil mixture was placed in a pot and compacted to a depth of 1.0 to 1.25 cm from the top of the pot. Seeds of each of several monocotyledonous and dicotyledonous annual plant species were placed on top of the soil. Additional soil was subsequently placed over the seeds to level-fill the pot. A known amount of each test compound dissolved or suspended in an appropriate organic solvent was diluted with a 50:50 mix of acetone and water and applied to the surface of the soil. After treatment the plants were placed in a greenhouse where they received 0.64 cm of overhead irrigation. All subsequent watering consisted of a light overhead mist and/or subirrigation as needed for germination and growth. Tables 5 and 6 below relate to warm season plant species which were placed after pre-emergence treatment in a greenhouse with a 30/21° C. day/night temperature regime. Tables 7 and 8 below relates to cool season plant species placed after pre-emergence treatment in a greenhouse or growth chamber with an 18/13° C. day/night temperature regime.
(§4) Approximately 14 days after planting and treating, the plants were observed and herbicidal efficacy recorded as percent inhibition by comparison with untreated plants.
(§5) The plant species usually regarded as weeds which were utilized in the tests are identified in the tables below according to the following legend, in which “d” indicates a dicotyledonous species and “m” a monocotyledonous species. All monocotyledonous species included in the tests herein are grasses.

| SMILES | Pre-emergence activity (GR80) DATST |
| --- | --- |
| CCSC(F)(F)S(=O)(=O)c1ncn(C(=S)N(CC)CC)n1 [Example 58] | 300 g/ha |

System: GALAP (catchweed bedstraw)
Assay: Pre-emergence herbicidal activity, cool season
Type: in vivo, Galium aparine
Details: lowest tested rate with 80% or greater inhibition; rates 300, 100, 30, 10 g/ha; about 14 days
Method in brief: as §1

| SMILES | Pre-emergence activity GR80, GALAP |
| --- | --- |
| CN(Cc1ccccc1)C(=O)n1cnc(S(=O)(=O)C(F)(F)Br)n1 [Example 44] | [empty] |
| C#CCN(C)C(=O)n1cnc(S(=O)(=O)C(F)(F)C(F)F)n1 [Example 66] | [empty] |
| CCSC(F)(F)S(=O)(=O)c1ncn(C(=S)N(CC)CC)n1 [Example 58] | 300 g/ha |

System: LAMPU (purple deadnettle)
Assay: Pre-emergence herbicidal activity, cool season
Type: in vivo, Lamium purpureum
Details: lowest tested rate with 80% or greater inhibition; rates 300, 100, 30, 10 g/ha; about 14 days
Method in brief: as §1

| SMILES | Pre-emergence activity GR80, LAMPU |
| --- | --- |
| CN(Cc1ccccc1)C(=O)n1cnc(S(=O)(=O)C(F)(F)Br)n1 [Example 44] | [empty] |
| C#CCN(C)C(=O)n1cnc(S(=O)(=O)C(F)(F)C(F)F)n1 [Example 66] | [empty] |
| CCSC(F)(F)S(=O)(=O)c1ncn(C(=S)N(CC)CC)n1 [Example 58] | 300 g/ha |

System: STEME (common chickweed)
Assay: Pre-emergence herbicidal activity, cool season
Type: in vivo, Stellaria media
Details: lowest tested rate with 80% or greater inhibition; rates 300, 100, 30, 10 g/ha; about 14 days
Method in brief: as §1

| SMILES | Pre-emergence activity GR80, STEME |
| --- | --- |
| CN(Cc1ccccc1)C(=O)n1cnc(S(=O)(=O)C(F)(F)Br)n1 [Example 44] | [empty] |
| C#CCN(C)C(=O)n1cnc(S(=O)(=O)C(F)(F)C(F)F)n1 [Example 66] | [empty] |
| CCSC(F)(F)S(=O)(=O)c1ncn(C(=S)N(CC)CC)n1 [Example 58] | 300 g/ha |

System: POLCO (wild buckwheat)
Assay: Pre-emergence herbicidal activity, cool season
Type: in vivo, Polygonum convolvulus
Details: lowest tested rate with 80% or greater inhibition; rates 300, 100, 30, 10 g/ha; about 14 days
Method in brief: as §1

| SMILES | Pre-emergence activity GR80, POLCO |
| --- | --- |
| CN(Cc1ccccc1)C(=O)n1cnc(S(=O)(=O)C(F)(F)Br)n1 [Example 44] | [empty] |
| C#CCN(C)C(=O)n1cnc(S(=O)(=O)C(F)(F)C(F)F)n1 [Example 66] | 300 g/ha |
| CCSC(F)(F)S(=O)(=O)c1ncn(C(=S)N(CC)CC)n1 [Example 58] | 300 g/ha |

System: PANMI (wild proso millet)
Assay: Pre-emergence herbicidal activity, warm season
Type: in vivo, Panicum miliaceum
Details: GR80 = lowest tested rate (300, 100, 30, 10 g/ha) with 80% or greater inhibition; approx. 14 days after treating; 30/21° C.
Method in brief: as §1

| SMILES | Pre-emergence activity (GR80) PANMI |
| --- | --- |
| CN(Cc1ccccc1)C(=O)n1cnc(S(=O)(=O)C(F)(F)Br)n1 [Example 44] | 300 g/ha |

System: SOLNI (black nightshade)
Assay: Pre-emergence herbicidal activity, warm season
Type: in vivo, Solanum nigrum
Details: GR80 = lowest tested rate (300, 100, 30, 10 g/ha) with 80% or greater inhibition; approx. 14 days after treating; 30/21° C.
Method: as §2, §3, §4, §5

| SMILES | Pre-emergence activity (GR80) SOLNI |
| --- | --- |
| CN(Cc1ccccc1)C(=O)n1cnc(S(=O)(=O)C(F)(F)Br)n1 [Example 44] | 30 g/ha |

System: ABUTH (velvetleaf)
Assay: Pre-emergence herbicidal activity, warm season
Type: in vivo, Abutilon theophrasti
Details: GR80 = lowest tested rate (300, 100, 30, 10 g/ha) with 80% or greater inhibition; approx. 14 days after treating; 30/21° C.
Method: as §2, §3, §4, §5

| SMILES | Pre-emergence activity (GR80) ABUTH |
| --- | --- |
| CN(Cc1ccccc1)C(=O)n1cnc(S(=O)(=O)C(F)(F)Br)n1 [Example 44] | 300 g/ha |
| C#CCN(C)C(=O)n1cnc(S(=O)(=O)C(F)(F)C(F)F)n1 [Example 66] | 300 g/ha |

System: SETVI (green foxtail)
Assay: Pre-emergence herbicidal activity, cool season
Type: in vivo, Setaria viridis
Details: GR80 = lowest tested rate (300, 100, 30, 10 g/ha) with 80% or greater inhibition; approx. 14 days after treating; 18/13° C.
Method in brief: as §1

| SMILES | Pre-emergence activity (GR80) SETVI |
| --- | --- |
| CCSC(F)(F)S(=O)(=O)c1ncn(C(=S)N(CC)CC)n1 [Example 58] | 300 g/ha |

System: CHEAL (common lambsquarters)
Assay: Pre-emergence herbicidal activity, warm season
Type: in vivo, Chenopodium album
Details: GR80 = lowest tested rate (300, 100, 30, 10 g/ha) with 80% or greater inhibition; approx. 14 days after treating; 30/21° C.
Method: as §2, §3, §4, §5

| SMILES | Pre-emergence activity (GR80) CHEAL |
| --- | --- |
| CCSC(F)(F)S(=O)(=O)c1ncn(C(=S)N(CC)CC)n1 [Example 58] | 300 g/ha |
